Like-named read-outs stand apart in the source and are kept apart here.
Assays:
albumin = albumin (Homo sapiens, UniProt P02768); assay: Binding of corrole complexes to albumin; details: preliminary experiments
Excerpt: Issues regarding biodistribution, transport mechanisms, accumulation in specific organs, and the eventual elimination of administered compounds are among the prime concerns when it comes to real life utilization of potential drugs. This can be addressed by several and quite different means, including in vitro, in vivo and ex-vivo examinations. One way to predict distribution is via examination of the binding of the corroles to circulating proteins that might act as transporters, similar to experiment performed previously by the inventors with metal complexes of corrole 1C (Scheme 1), which spontaneously form tightly bound non-covalent bioconjugates with HDL (Haber et al., 2007), albumin (Mahammed et al., 2004), and transferrin (Haber and Gross. 2007) (listed in increasing order of affinity), as well as with semi-synthetic proteins (Agadjanian et al., 2006). […] A more direct approach relies on the strong fluorescence of corroles that are not chelated by transition metals (no metal such as in corroles 1C and 2C, or using corrole Ga/Al complexes such as 1C-Ga). This feature is used for testing cell entry via confocal microscopy (Agadjanian et al., 2006), without the need of attaching a fluorescent tag. Furthermore, it may even be used for whole animal imaging purposes, as shown in Example 4 hereinabove. […]

SH-SY5Y cells = format: cell-based
Description: Human neuroblastoma cell line was also examined under conditions similar to RIN-m cells to reveal the corrole's ability to prevent neuronal death caused by oxidative stress. SH-SY5Y cells were plated in microtiter plates (96 wells) in DMEM-Eagle/F-12(HAM) (1:1), containing 10% FCS. To examine neuroprotective effect, SH-SY5Y cells were treated for 30 min with corroles 1C-Fe and 5C-Fe (20 and 50 μM) before addition of 20 μM H2O2 for 24 h. To examine neurorescue, SH-SY5Y cells were first exposed to 20 μM H2O2 for 0.5 h, 1.5 h or 3 h, followed by the addition of corroles 1C-Fe and 5C-Fe (20 μM) and incubation for 24 h.
Compounds 1C-Fe and 1P-Fe (1-50 μM) were added 30 min before insult with H2O2 (200 μM), followed by a subsequent 24 h period. The neuroprotective effects of the iron corrole 1C-Fe and its structurally analogous iron porphyrin 1P-Fe, against H2O2-induced neurotoxicity were investigated using MTT reduction assay and cell death ELISA, based on the use of mouse monoclonal antibodies to detect free histones and fragmented DNA (F. Hollderieder et al, Biochemica 2002, 1, 25). […] In light of the observed neuroprotective effect of corrole 1C-Fe, we attempted to determine the length of the delay between H2O2 exposure and corrole 1C-Fe treatment that would still afford neuroprotection. H2O2 was administered to SH-SY5Y cells and corrole 1C-Fe was then added for 0.5-1.5 h thereafter. […]

NSC-34 G93A cells = assay: Cell culture model of familial ALS, NSC-34 cells expressing mutant G93A-SOD1; format: cell-based, mouse; details: 48 h induction; even at a concentration as low as 0.5 μM
Description: Mutant-superoxide dismutase (G93A-SOD1) is associated with familial amyotrophic lateral sclerosis (FALS). A cell culture model of FALS was implemented by stably transfecting mouse motoneuronal NSC-34 cells or SH-SY5Y cells, to express mutant G93A-SOD1 at levels approximating those seen in the human disease. NSC-34 cells or SH-SY5Y cells were incubated in Dulbecco's modified Eagle's/F-12 medium supplemented with 10% FCS tetracycline-free (FCS Tet-free; Clontech), at 37° C. in an atmosphere of 5% CO2 in air. These cell lines are stably transfected with the pTet-ON plasmid (Clontech, Palo Alto, Calif.) coding for the reverse tetracycline controlled transactivator (rtTA). Induction of mutant SOD1 expression was obtained by shifting nonconfluent cultures into growth medium containing 1% N2 supplement (Invitrogen, Carlsbad, Calif.) and […] doxocyclin for 48 h in the presence or absence of corrole 1C-Fe and 5C-Fe.

Chain of albumin (P02768 25-609): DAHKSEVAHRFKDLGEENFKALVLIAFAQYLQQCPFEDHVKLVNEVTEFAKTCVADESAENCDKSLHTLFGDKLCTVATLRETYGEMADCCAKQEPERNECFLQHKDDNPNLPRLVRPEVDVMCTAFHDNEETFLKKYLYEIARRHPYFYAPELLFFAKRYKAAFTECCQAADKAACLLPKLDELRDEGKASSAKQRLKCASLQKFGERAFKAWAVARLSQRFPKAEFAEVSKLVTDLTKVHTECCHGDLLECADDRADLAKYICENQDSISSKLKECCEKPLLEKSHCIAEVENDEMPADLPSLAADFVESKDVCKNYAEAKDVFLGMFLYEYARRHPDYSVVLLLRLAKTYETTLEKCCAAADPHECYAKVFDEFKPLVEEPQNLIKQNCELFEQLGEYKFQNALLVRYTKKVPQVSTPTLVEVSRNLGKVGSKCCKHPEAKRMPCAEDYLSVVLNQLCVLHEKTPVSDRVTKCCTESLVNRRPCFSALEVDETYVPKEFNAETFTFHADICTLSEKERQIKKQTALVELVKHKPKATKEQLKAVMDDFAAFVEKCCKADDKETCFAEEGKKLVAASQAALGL

| Structure (SMILES) | binding to albumin (albumin) | neurorescue after H2O2 insult (SH-SY5Y cells; 20 μM H2O2 for 0.5, 1.5 or 3 h, then 20 μM corrole, 24 h) | cell viability (MTT reduction) (SH-SY5Y cells; 1-20 μM, 30 min before 200 μM H2O2, 24 h) | neuroprotective effect, corrole added after H2O2 (SH-SY5Y cells; 1 and 1.5 h post-H2O2 insult, extent of protection gradually decreased) | neuroprotective effect against H2O2-induced toxicity (SH-SY5Y cells; 20 and 50 μM, 30 min before 20 μM H2O2, 24 h) | cell death (ELISA detection assay) (SH-SY5Y cells; 30 min before 200 μM H2O2, 24 h) | neuroprotective effect, corrole added after H2O2 (SH-SY5Y cells; 0.5 h post-H2O2 insult) | protection from H2O2-induced neurotoxicity compared with porphyrin (SH-SY5Y cells; all concentrations studied (1-50 μM), 200 μM H2O2) | cell viability of induced mutant cells (NSC-34 G93A cells) |
| --- | --- | --- | --- | --- | --- | --- | --- | --- | --- |
| C[n+]1ccc(C2=C3C=CC4=[N+]3[Mn-]35[n]6c2ccc6-c2ccc([n]23)C(c2cc[n+](C)cc2)=c2ccc([n]25)=C4c2c(F)c(F)c(F)c(F)c2F)cc1.[I-].[I-] (stereo not drawn) [2C-Mn, 5,15-bis(4-N-methyl-pyridilium)-10-pentafluorophenyl-corrolato manganese(III) diiodide salt] | do not bind to albumin | – | – | – | – | – | – | – | – |
| O=S(=O)(O)c1cc2[n]3c1C(c1c(F)c(F)c(F)c(F)c1F)=C1C=CC4=[N+]1[Fe-]31[n]3c(cc(S(=O)(=O)O)c3-2)C(c2c(F)c(F)c(F)c(F)c2F)=c2ccc([n]21)=C4c1c(F)c(F)c(F)c(F)c1F (stereo not drawn) [1C-Fe, 2,17-bis(sulfonato)-5,10,15-tris(pentafluorophenyl)-corrolato iron(III)] | – | instigated neurorescue | dose-dependently increased cell viability | significantly protected | dose-dependent neuroprotective effect | significantly and dose-dependently protected | remained unaltered | displayed superiority over porphyrin 1P-Fe | significantly improved cell viability |
